The text below walks through data of patent publication US11419869B2, “Dosage forms and regimens for amino acid compounds” (Pliant Therapeutics, Inc., priority 2019, dated 2022).

For one data set, the system named is pSMAD2/SMAD2 ratio. Nature of the data set: Precision cut lung slices from human IPF lung tissue, pSMAD2/SMAD2 ratio. It counts as cell-based. The settings on record: PCLS from 3 IPF lung tissues, seven days, Compound 5 at 1.82 μM, FIG. 6F. As for the experimental part: PCLS from 3 IPF lung tissues were cultured for seven days with Compound 5. […] The ratio of pSMAD2/SMAD2 is also graphed for the PCLS in the presence of 0.1% DMSO control, and an Alk5 inhibitor at 1 μM

Data set [1] is described as follows: SAD and MAD first-in-human pharmacokinetic studies (Example B12). It counts as in vivo. On the procedure: Healthy human subjects (N=85) were selected for single ascending dose (SAD) and multiple ascending dose (MAD) first-in-human studies. A solution for oral administration was prepared, containing 10 mg/mL of compound 5 in a 50:50 mixture of ORA-SWEET® SF (PERRIGO®, Allegan, Mich.) and sterile water for irrigation. Sufficient solution was administered orally to the subjects to provide between 15 mg/dose and 75 mg/dose of compound 5 in the SAD study and between 10 mg/dose and 40 mg/dose of compound 5 in the MAD study. Concentrations of compound 5 were measured in the subjects by obtaining a sample of plasma from each subject at desired intervals, and subjecting the plasma to liquid chromatography-mass spectrometry-mass spectrometry (LC-MS/MS), with quantification using a calibration curve determined from a range of solutions at standardized concentrations. The lower limit of quantitation (LLOQ) of the assay was 1 ng/mL and the calibration curve range was 1 to 500 ng/mL.

For another data set, the system named is lung Col1a1 expression. Nature of the data set: Precision cut lung slices, chronic bleomycin, versus pirfenidone and nintedanib (Example B10). The format is cell-based, mice. The conditions noted are these: 7 days culture, vs DMSO vehicle, FIG. 6A. As for the experimental part: Mice (C57BL/6) were administered 3 U/kg of bleomycin (Teva Pharmaceuticals; North Wales, Pa.) on Day 0 and 1 U/kg of bleomycin on days 14, 28, 42 and 56 via oropharyngeal aspiration while under anesthesia. At day 70, 14 days following the final bleomycin insult, precision cut lung slices were obtained. Following euthanization, 2% low gelling temp agarose was injected into the mouse lungs via the trachea. […] The lobes were then subjected to precision slicing to obtain samples for culture using a microtome (Compresstome VF-300-0Z, Precisionary; Greenville, N.C.). Individual slices were distributed in a multiwell culture plate and cultured for 7 days under control (DMSO) and test compound conditions. The viability of the slices over the course of culturing was confirmed by WST-1 assay of mitochondrial activity.
During the culture period, slices in the control group were treated with DMSO and slices in the test group were treated with a DMSO solution of one of compound 5; nintedanib; pirfenidone; a combination of nintedanib and compound 5; a combination of pirfenidone and compound 5; or the small molecule ALK5 inhibitor. Compound 5 was […] effective to equal or exceed its respective IC50 values at αvβ6 and αvβ1. The small molecule ALK5 inhibitor was analyzed at […] its reported IC50 value. Nintendanib and pirfenidone were analyzed at concentrations 10× their reported therapeutic concentrations.

The subject of another data set is COL1A1 expression. Description: COL1A1 expression in precision cut lung slices (PCLS) from human IPF lung tissue. The conditions noted are these: FIG. 6E, 200 pM to 1 μM.
The subject of the next data set is SMAD3 phosphorylation. Description: PSMAD3/SMAD3 in healthy mice treated for 4 days. The format is in vivo. The settings on record: 4 days of treatment. From the text:
It has been previously shown that inhibition of αvβ6 in the lung can be detected though measurement of phospho-SMAD (pSMAD) in alveolar macrophages. Alveolar macrophages are known to operate in a unique niche in the lung, distinct from interstitial macrophages. SMAD3 is a downstream target of the active TGF-β cytokine binding its receptor and in alveolar macrophages it is phosphorylated by homoeostatic levels of TGF-β. Accordingly, it was desirable to know whether inhibition of TGF-β activation using the disclosed compounds would result in reduced SMAD2 and SMAD3 phosphorylation.
FIG. 4A is a graph of PSMAD3/SMAD3 in lung tissue from healthy mice administered PBS vehicle and varying levels of compound 5 for 4 days. FIG. 4B is a graph of PSMAD3/SMAD3 in BALF drawn from the same healthy mice administered PBS vehicle and varying levels of compound 5 for 4 days.

The test system of another data set is pSMAD2:SMAD2 ratio. Nature of the data set: pSMAD2/SMAD2 in BAL from healthy human subjects (Example B13). It counts as in vivo. The settings on record: Day 7, subjects with Cmax above 700 ng/mL, compared to placebo group, 20 or 40 mg daily. On the procedure: In order to evaluate the change of pSMAD2 as a biomarker of TGF-β activity following administration of an integrin inhibitor, and to determine a therapeutically effective dosage and an effective blood plasma Cmax of the integrin inhibitor, healthy subjects were administered compound 5, a dual selective αvβ6/αvβ1-integrin inhibitor, and the corresponding Cmax levels and decrease in phosphorylation levels and were determined.
Healthy non-smoking adult males without history of lung disease were selected as subjects and were randomized into 4 cohorts. Broncoalevaolar lavage samples were obtained from all subjects 1 day prior to start of treatment. Cohorts 1 and 2 were administered 20 mg of a compound daily, wherein 3 subjects were administered the dual selective αvβ6/αvβ1-integrin inhibitor (compound 5) per every 1 subject receiving a placebo compound. Cohorts 3 and 4 were administered 40 mg of a compound daily, wherein 3 subjects were administered the dual selective αvβ6/αvβ1-integrin inhibitor (compound 5) per every 1 subject receiving a placebo compound. BAL samples and blood samples were taken from all subjects on Day −1 (baseline) and on Day 7 (end of treatment).

By half-life is commonly meant the time needed for the level to fall by half in the phase considered.

With `COCCN(CCCCc1ccc2c(n1)NCCC2)CC[C@H](Nc1ncnc2ccccc12)C(=O)O` [Compound 5, (S)-4-((2-methoxyethyl) (4-(5,6,7,8-tetrahydro-1,8-naphthyridin-2-yl)butyl)amino)-2-(quinazolin-4-ylamino) butanoic acid], the “reduction of pSMAD2/SMAD2 ratio” value in the data set with pSMAD2/SMAD2 ratio is recorded as “approximately 50%”. Besides, the “oral bioavailability and pharmacokinetics” value in data set [1] (healthy subjects) was “good oral bioavailability and pharmacokinetics”. In data set [1] (plasma, healthy human subjects, oral solution, SAD 15-75 mg, MAD 10-40 mg, read-out: calculated half life), the half-life is 18 to 20 h. Besides, the “lung slice Col1a1 expression” value in the data set on lung Col1a1 expression is “substantial, statistically significant (p<0.01 vs vehicle) decrease”. Moreover, in the data set on COL1A1 expression, the COL1A1 expression entry is “dose dependent reduction”. For the same molecule, in the data set on SMAD3 phosphorylation (FIG. 4A), the “PSMAD3/SMAD3 in lung tissue” value was “approximately 50 % of the untreated levels”. For the same molecule, the “PSMAD3/SMAD3 in BALF” value in the data set with SMAD3 phosphorylation (cells isolated from BALF, FIG. 4B) is “approximately 50 % of the untreated levels”. Besides, the “reduction in pSMAD2:SMAD2 ratio” value with pSMAD2:SMAD2 ratio was at least 50%.
